These results are taken from ChEMBL document CHEMBL5665443, “Enzyme Inhibitor Single Concentration assay results for EUbOPEN Chemogenomics Library” (2024).

For assay [1], the target named is T1, Single-strand selective monofunctional uracil DNA glycosylase (Homo sapiens) (UniProt Q53HV7).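 Note: enzymatic SMUG1 assay coupled with APE1, reading fluorescence at 594 nm released when a quenched double-stranded DNA oligonucleotide substrate is cleaved and separated.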
T1 sequence (whole entry): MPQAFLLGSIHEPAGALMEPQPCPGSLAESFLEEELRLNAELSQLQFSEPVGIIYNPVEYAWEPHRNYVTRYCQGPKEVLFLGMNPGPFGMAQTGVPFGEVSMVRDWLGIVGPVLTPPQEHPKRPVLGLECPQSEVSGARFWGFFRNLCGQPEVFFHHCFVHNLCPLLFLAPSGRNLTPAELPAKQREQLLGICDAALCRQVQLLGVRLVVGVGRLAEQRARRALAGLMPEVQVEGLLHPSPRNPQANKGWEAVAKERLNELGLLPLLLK
As to conditions: Compound Concentration 10.0 uM, Hit No.
Description: Inhibition of SMUG1 by quantifying inhibition of SMUG1-mediated cleavage and dissociation of quenched duplex DNA oligonucleotides, measured as fluorescence at 594 nm. To generate a functional strand incision and increase turn-over this assay is coupled to APE1.

Assay [2] has as its target T2, Endonuclease 8-like 2 (Homo sapiens) (UniProt Q969S2).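 Note: fluorescence at 594 nm reports NEIL2 cutting and release of a quenched double-stranded DNA oligo substrate, reduced signal read as inhibition.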
T2 sequence (whole entry): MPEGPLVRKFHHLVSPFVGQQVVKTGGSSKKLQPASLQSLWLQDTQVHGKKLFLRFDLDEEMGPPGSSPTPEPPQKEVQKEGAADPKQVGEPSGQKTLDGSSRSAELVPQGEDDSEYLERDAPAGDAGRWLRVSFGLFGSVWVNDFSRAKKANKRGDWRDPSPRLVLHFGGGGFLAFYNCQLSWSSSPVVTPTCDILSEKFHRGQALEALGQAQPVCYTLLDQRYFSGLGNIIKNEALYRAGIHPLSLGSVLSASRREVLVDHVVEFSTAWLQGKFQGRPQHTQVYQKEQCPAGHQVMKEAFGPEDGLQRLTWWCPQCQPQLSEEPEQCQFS
As to conditions: Compound Concentration 10.0 uM, Hit No.
Description: Inhibition of NEIL2 by quantifying inhibition of NEIL2-mediated cleavage and dissociation of quenched duplex DNA oligonucleotides, measured as fluorescence at 594 nm.

The target in assay [3] is Endonuclease 8-like 1 (Homo sapiens) (UniProt Q96FI4). As to conditions: Compound Concentration 10.0 uM, Hit No.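 Note: fluorescence at 594 nm from quenched duplex DNA oligonucleotides released by NEIL1 cleavage and strand separation, reported as reduction of this enzyme activity.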
Chain of Endonuclease 8-like 1 (Homo sapiens) (Q96FI4 whole entry): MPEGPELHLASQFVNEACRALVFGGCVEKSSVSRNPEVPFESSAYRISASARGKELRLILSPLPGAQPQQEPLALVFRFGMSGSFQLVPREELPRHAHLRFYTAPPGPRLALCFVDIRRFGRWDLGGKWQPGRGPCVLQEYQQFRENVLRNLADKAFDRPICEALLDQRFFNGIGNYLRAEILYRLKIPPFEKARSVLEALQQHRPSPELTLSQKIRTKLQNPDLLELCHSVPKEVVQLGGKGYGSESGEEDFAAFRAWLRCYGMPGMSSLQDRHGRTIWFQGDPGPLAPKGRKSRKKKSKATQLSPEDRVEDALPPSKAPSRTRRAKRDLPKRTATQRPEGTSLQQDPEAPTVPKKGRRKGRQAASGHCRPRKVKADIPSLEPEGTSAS
Description: Inhibition of NEIL1 by quantifying inhibition of NEIL1-mediated cleavage and dissociation of quenched duplex DNA oligonucleotides, measured as fluorescence at 594 nm.
Assay [4] concerns the target G/T mismatch-specific thymine DNA glycosylase (Homo sapiens) (UniProt Q13569). As to conditions: Compound Concentration 10.0 uM, Hit No.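 Note: human TDG cleavage of quenched duplex DNA oligonucleotides coupled to APE1, strand release read as fluorescence at 594 nm, inhibition of TDG activity.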
Description: Inhibition of TDG by quantifying inhibition of TDG-mediated cleavage and dissociation of quenched duplex DNA oligonucleotides, measured as fluorescence at 594 nm. To generate a functional strand incision and increase turn-over this assay is coupled to APE1.
Assay [5] addresses DNA-3-methyladenine glycosylase (Homo sapiens) (UniProt P29372). As to conditions: Compound Concentration 10.0 uM, Hit No.
Description: Inhibition of MPG by quantifying inhibition of MPG-mediated cleavage and dissociation of quenched duplex DNA oligonucleotides, measured as fluorescence at 594 nm. To generate a functional strand incision and increase turn-over this assay is coupled to APE1.
Assay [6] deals with Uracil-DNA glycosylase (Homo sapiens) (UniProt P13051). As to conditions: Compound Concentration 10.0 uM, Hit No.
Chain of Uracil-DNA glycosylase (Homo sapiens) (P13051 whole entry): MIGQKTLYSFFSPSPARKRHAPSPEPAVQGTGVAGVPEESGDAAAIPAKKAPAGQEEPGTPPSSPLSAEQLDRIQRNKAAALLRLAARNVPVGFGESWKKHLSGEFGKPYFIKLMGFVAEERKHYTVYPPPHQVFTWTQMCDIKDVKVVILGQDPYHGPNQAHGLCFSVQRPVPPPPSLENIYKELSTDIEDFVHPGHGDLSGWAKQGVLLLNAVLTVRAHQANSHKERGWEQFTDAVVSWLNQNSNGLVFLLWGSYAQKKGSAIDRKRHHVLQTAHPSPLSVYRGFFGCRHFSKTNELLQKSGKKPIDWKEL
Description: Inhibition of UNG by quantifying inhibition of UNG-mediated cleavage and dissociation of quenched duplex DNA oligonucleotides, measured as fluorescence at 594 nm. To generate a functional strand incision and increase turn-over this assay is coupled to APE1.
Assay [7] addresses T3, Endonuclease III-like protein 1 (Homo sapiens) (UniProt P78549).
T3 sequence (whole entry): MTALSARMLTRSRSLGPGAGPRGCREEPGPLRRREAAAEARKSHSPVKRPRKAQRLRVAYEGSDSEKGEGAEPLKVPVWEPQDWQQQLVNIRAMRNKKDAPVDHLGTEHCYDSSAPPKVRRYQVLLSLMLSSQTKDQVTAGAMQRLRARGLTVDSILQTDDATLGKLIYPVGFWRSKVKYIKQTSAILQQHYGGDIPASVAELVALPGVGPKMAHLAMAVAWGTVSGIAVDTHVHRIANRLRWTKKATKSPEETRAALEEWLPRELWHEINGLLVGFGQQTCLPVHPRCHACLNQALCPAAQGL
As to conditions: Compound Concentration 10.0 uM, Hit No.
Description: Inhibition of NTHL1 by quantifying inhibition of NTHL1-mediated cleavage and dissociation of quenched duplex DNA oligonucleotides, measured as fluorescence at 594 nm.

Assay [8] deals with Methyl-CpG-binding domain protein 4 (Homo sapiens) (UniProt O95243). As to conditions: Compound Concentration 10.0 uM.
Chain of Methyl-CpG-binding domain protein 4 (Homo sapiens) (O95243 whole entry, the tested form may be a part): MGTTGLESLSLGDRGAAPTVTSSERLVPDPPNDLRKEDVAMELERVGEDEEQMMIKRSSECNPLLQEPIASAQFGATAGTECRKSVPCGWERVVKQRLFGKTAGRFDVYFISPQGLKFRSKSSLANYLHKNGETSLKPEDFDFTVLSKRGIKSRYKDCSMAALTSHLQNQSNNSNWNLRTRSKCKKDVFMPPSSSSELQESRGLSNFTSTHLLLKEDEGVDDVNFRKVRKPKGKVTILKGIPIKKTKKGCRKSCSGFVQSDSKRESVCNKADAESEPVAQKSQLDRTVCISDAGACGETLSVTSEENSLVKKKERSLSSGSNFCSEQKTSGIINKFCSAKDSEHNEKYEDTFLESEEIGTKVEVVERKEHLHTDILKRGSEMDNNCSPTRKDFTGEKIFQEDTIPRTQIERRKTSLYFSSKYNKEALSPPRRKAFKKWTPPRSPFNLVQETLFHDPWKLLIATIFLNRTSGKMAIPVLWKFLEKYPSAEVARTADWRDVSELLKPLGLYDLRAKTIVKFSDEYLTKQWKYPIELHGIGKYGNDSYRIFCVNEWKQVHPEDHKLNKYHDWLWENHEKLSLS
Description: Inhibition of MBD4 by quantifying inhibition of MBD4-mediated cleavage and dissociation of quenched duplex DNA oligonucleotides, measured as fluorescence at 594 nm. To generate a functional strand incision and increase turn-over this assay is coupled to APE1.
The target in assay [9] is T4, Adenine DNA glycosylase (Homo sapiens) (UniProt Q9UIF7).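 Note: human MUTYH activity read as 594 nm fluorescence from cleavage and release of a quenched DNA duplex, coupled with APE1 for strand incision, lower signal meaning inhibition.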
T4 sequence (whole entry): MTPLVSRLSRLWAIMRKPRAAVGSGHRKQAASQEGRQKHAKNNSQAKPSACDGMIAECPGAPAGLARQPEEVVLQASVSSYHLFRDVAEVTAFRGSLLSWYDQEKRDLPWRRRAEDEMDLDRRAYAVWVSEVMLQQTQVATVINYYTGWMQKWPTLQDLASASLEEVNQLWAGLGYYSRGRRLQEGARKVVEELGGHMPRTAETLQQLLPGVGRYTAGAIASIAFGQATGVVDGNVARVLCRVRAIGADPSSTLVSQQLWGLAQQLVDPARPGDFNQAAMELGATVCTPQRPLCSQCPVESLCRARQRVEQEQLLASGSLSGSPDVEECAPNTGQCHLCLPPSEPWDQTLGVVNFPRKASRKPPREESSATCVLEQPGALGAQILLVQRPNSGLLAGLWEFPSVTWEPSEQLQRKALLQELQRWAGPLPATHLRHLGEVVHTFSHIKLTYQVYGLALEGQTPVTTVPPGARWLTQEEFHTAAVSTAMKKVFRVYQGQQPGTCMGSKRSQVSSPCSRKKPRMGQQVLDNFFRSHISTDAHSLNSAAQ
As to conditions: Compound Concentration 10.0 uM, Hit No.
Description: Inhibition of MUTYH by quantifying inhibition of MUTYH-mediated cleavage and dissociation of quenched duplex DNA oligonucleotides, measured as fluorescence at 594 nm. To generate a functional strand incision and increase turn-over this assay is coupled to APE1.

Chain of DNA-3-methyladenine glycosylase (Homo sapiens) (P29372 whole entry): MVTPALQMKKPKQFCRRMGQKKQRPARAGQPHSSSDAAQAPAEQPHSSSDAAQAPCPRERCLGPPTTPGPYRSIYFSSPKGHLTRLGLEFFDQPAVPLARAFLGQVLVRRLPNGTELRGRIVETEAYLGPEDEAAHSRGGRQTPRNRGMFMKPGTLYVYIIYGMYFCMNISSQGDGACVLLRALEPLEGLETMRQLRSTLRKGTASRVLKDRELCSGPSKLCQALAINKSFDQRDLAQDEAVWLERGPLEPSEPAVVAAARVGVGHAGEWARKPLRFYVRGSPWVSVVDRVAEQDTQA
Chain of G/T mismatch-specific thymine DNA glycosylase (Homo sapiens) (Q13569 whole entry): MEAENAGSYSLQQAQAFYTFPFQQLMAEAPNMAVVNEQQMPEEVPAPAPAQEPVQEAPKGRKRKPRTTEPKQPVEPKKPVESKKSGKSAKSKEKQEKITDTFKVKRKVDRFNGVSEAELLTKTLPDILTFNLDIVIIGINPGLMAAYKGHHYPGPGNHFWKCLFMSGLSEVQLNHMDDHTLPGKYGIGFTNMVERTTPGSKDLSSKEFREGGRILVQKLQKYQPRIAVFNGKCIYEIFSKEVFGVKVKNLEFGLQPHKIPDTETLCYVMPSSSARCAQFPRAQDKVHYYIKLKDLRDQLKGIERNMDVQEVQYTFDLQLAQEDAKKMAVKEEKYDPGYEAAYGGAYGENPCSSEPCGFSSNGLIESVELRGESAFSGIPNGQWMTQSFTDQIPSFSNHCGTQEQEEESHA

Turning to `CCCCC[C@H](O)/C=C/[C@@H]1[C@@H](C/C=C\CCCC(=O)O)[C@@H](O)C[C@H]1O`, the inhibition (commonly the relative decrease from the control value, in per cent) is 8.11% in assay [1]; 0.515% in [2]; 7.21% in assay [3]; 25.5% in assay [4]; -6.92% in assay [5]; -8.4% in assay [6]. Besides, the inhibition in [7] is 7.79%; in assay [8] (Hit No), -2.06%; in assay [9], -4.2%.
`Cc1nnc2ccc(-c3cccc(C(F)(F)F)c3)nn12`: the inhibition in assay [1] was -2.84%; in assay [2] it was -0.86%; in [3], 1.34%; in assay [4], 5.5%; in assay [5], -6.43%; in assay [6], -4.72%. The inhibition was 22% in assay [7], 9.3% in assay [8] (Hit No) and -2.78% in assay [9].
On to `N#Cc1cccc(-c2nc(-c3cccnc3)no2)c1`, for which the inhibition in assay [1] is -8.21%; in [2] it was -2.39%; in assay [3], 2.53%; in assay [4], -5.18%; in [5], -9.43%; in assay [6], -2.96%. The inhibition in assay [7] was -1.08%; in assay [8] (Hit No), -5.03%; in assay [9], -6.2%.
In the case of `COC1(C[S@@+]([O-])c2ccccc2)CCN(CCc2c[nH]c3ccc(F)cc23)CC1`, the inhibition is -8.49% in assay [1]; 5.2% in assay [3]; 6.29% in assay [4]; -3.99% in assay [5]; -4% in assay [6]; 17.1% in assay [7]. Besides, the inhibition in [8] (Hit No) is 2.25%; in assay [9], -7.4%.
Regarding `N[C@@]1(C(=O)O)CC[C@H]2[C@H](C(=O)O)[C@H]21`, the inhibition is 2.53% in assay [1]; -1.37% in assay [2]; 5.05% in [3]; 13.1% in assay [4]; -1.43% in assay [5]; -8.38% in assay [6]. Besides, the inhibition is 27.8% in assay [7], 2.62% in assay [8] (Hit No) and 4.77% in assay [9].
As for `CN(C)CCCc1cc(C(=O)Nc2ccc(-c3ccncc3)cc2)ccc1O`, the inhibition was 1.23% in assay [1]; 8.82% in [2]; 0.602% in assay [3]; 22.9% in [4]; 5.48% in [5]; -0.815% in assay [6]. The results for the inhibition in assay [7], in assay [8] (Hit No) and in assay [9] were 12.1%, 15.3% and 5.24%, respectively.
Regarding `CC[C@H]1CN(c2nc(N)c(C(N)=O)nc2Cl)CCN1C1CCN(Cc2ccc(Cl)cc2)CC1`, the inhibition in assay [1] is -7.08%; in [2] it was 3.47%; in assay [3] it was 5.05%; in assay [4], 2.57%; in assay [5] it was -5.95%; in assay [6] it was -8.52%. Further, the inhibition was 24.5% in [7], -2.17% in assay [8] (Hit No) and -3.97% in [9].
Take `CO[C@H]1CC=C2CCN3CCC4=C(CC(=O)OC4)[C@]23C1`: the inhibition in [1] was -2.5%; in assay [2], -5.96%; in [3], -3.1%; in assay [4], -1.81%; in [5], -7.01%; in [6] it was -6.82%. Also, the values for the inhibition in assay [7], in assay [8] (Hit No) and in assay [9] were -0.258%, 5.26% and 1.14%, respectively.
With `CCNC(=O)[C@H]1O[C@@H](n2cnc3c(N)ncnc32)[C@H](O)[C@@H]1O`, the inhibition is -5.33% in assay [1]; 3.86% in assay [3]; -4.15% in assay [4]; -3.56% in assay [5]; -2.94% in [6]; 17.9% in assay [7]. In addition, the inhibition was -0.442% in assay [8] (Hit No) and -3.4% in assay [9].
With `COC(=O)N1CCN(C(=O)Cc2ccc(Cl)c(Cl)c2)C(CN2CCCC2)C1` (configuration not stated), the inhibition was -9.51% in assay [1]; 0.414% in [2]; 4.16% in assay [3]; -7.07% in [4]; -2.31% in [5]; -7.49% in assay [6]. The figures for the inhibition in [7], in assay [8] (Hit No) and in [9] were 19.6%, 11.3% and 4.69%, respectively.
`COCc1nc2cnc3cc(-c4c(C)noc4C)c(OC[C@H]4CCNC4)cc3c2n1[C@H](C)c1ccccc1`: the inhibition is -7.21% in assay [1]; -1.25% in [2]; -6.95% in [3]; 54.7% in assay [4]; -8.22% in assay [5]; -1.93% in assay [6]. In addition, the inhibition in assay [7] is -9.18%; in [8] (Hit No), 57.4%; in [9], 2.41%.
Turning to `Cc1c(F)cccc1[C@H]1COC(N)=N1`, the inhibition in assay [1] was -8.55%; in assay [2], -0.86%; in [3], 11.3%; in [4], 11.7%; in assay [5], 12.2%; in assay [6], -1.2%. Moreover, the inhibition in assay [7] stood at 14.6%; in assay [8] (Hit No) it was 5.02%; in assay [9], 32.1%.
As for `COc1cc(OC2CCN(C(C)=O)CC2)ccc1C(=O)N1CCC(N2C(=O)OCc3ccccc32)CC1`, the inhibition is -0.579% in assay [1]; 5.25% in [2]; 2.08% in assay [3]; 20.8% in assay [4]; -3.3% in assay [5]; -2.76% in [6]. Moreover, the inhibition in assay [7] came to 24.5%; in [8] (Hit No) it was 5.95%; in assay [9], 48.1%.
Consider `C[C@@H](C(N)=O)[C@H](N)c1nc2ccc(C(C)(C)C)cc2[nH]1`, for which the inhibition is -0.466% in assay [1]; 0.158% in assay [3]; 6.56% in assay [4]; 2.09% in assay [5]; -4.85% in [6]; 12.9% in assay [7]. Moreover, the inhibition in [8] (Hit No) came out at 10.2%; in [9] it was 0.595%.
As to `CC(C)(O)c1ccc2c(c1)ncn2-c1cccc(-c2ccccc2C#N)c1`, the inhibition is 1% in assay [1]; -1.62% in assay [3]; -5.39% in assay [4]; 3.49% in assay [5]; -7.68% in assay [6]; 12.1% in [7]. For the same compound, the inhibition in [8] (Hit No) is 26.4%; in [9] it was -2.7%.
For the compound `Brc1c(NC2=NCCN2)ccc2nccnc12`, the inhibition is -5.99% in [1]; 6.5% in assay [2]; -5.69% in assay [3]; 1.79% in [4]; -8.07% in assay [5]; -4.67% in [7]. The inhibition is 140% in assay [8] (Hit Yes) and -8.17% in assay [9].
`CC(C)(C)c1ccc(NC(=O)N2CCN(c3ncccc3Cl)CC2)cc1`: the inhibition was -0.579% in assay [1]; -1.77% in [3]; 11% in assay [4]; 9.36% in assay [5]; -5.92% in [6]; 21.2% in assay [7]. Besides, the inhibition was 8.84% in [8] (Hit No) and -0.729% in [9].
